Test results reported in patent US9399145B2, “Nanoscale neuromodulating platform for retina neuron activation apparatus and method” (The Board of Trustees of the University of Illinois, priority 2005, dated 2016).

What was measured:
[1] = Spectrophotometric and NMR analysis of photoisomerization; format: physicochemical
Procedure: UV and visible light sources of the electrophysiological apparatus were used for the spectrophotometric and NMR experiments. MPC088 samples were analyzed as DMSO solutions in a quartz cuvette (spectrophotometry) and a DMSO-d6 solution in a quartz NMR tube.
To test the stability of cis-MPC088 in darkness, a preparation of 30 μM MPC088 in oocyte Ringer solution that had been converted to predominantly cis form by a 5-min UV illumination was spectrophotometrically analyzed. The sample was subsequently kept in darkness at room temperature.
The UV-induced decrease in membrane current was analyzed by fitting a simple exponential decay function to the waveforms obtained and determining the exponential time constant (τ).

[2] = test system: Purkinje neurons (PNs) of the cerebellar slice; experiment: Whole-cell current clamp of Purkinje neurons, action potential firing; format: cell-based, mouse
Procedure: The effects of MPC088 on action potential firing in PNs of the cerebellar slice were also examined. These experiments were similar to those, except that the cells were recorded under current-clamp in order to allow the cell to spike. […] Representative data was obtained by whole-cell current-clamp recording from a PN which was injected with 468 pA to elicit a high-frequency train of action potentials. […] The cell was then exposed for 1-s durations to UV light (UV1), then blue light, and then again with UV (UV2). […] Below this trace is plotted the instantaneous firing frequency vs. time; the dashed line reflects the average firing frequency during the 1-s epoch that preceded the first UV exposure (FIG. 41a). FIG. 41b depicts a summary of results from experiments of the type shown in a. Average spike frequencies were obtained for each cell in each of five 1-s epochs, then normalized to the pre-GABA/MPC088 firing frequency (n=8 cells from 4 animals). Error bars here and in c represent the SEM. Repeated-measures ANOVA on the aggregate data yielded F(3,21)=10.213, p<0.001. […] Significance was determined from post-hoc paired-sample t-tests corrected for multiple comparisons, which yielded p<0.02. […]
To further address whether MPC088 has non-specific effects on excitability, the spikes elicited in the experiment described in FIG. 41 were analyzed. […] Three action potential (AP) parameters were measured: peak amplitude, half width, and maximum rise slope. […] AP waveform parameters were calculated for pre-puff, blue light, and UV epochs. […]
For the voltage-clamp experiments of FIG. 40, each cell was […] between 1-6 trials of the drug application+light flash protocol. […] A peri-stimulus time histogram (PSTH) was calculated for each trial using 250-ms time bins; these were averaged across trials to produce a PSTH for the experiment, using the software TaroTools (Dr. Taro Ishikawa, Jikei University School of Medicine, Tokyo, Japan) and Igor Pro 6.2 (WaveMetrics, Inc., Lake Oswego, Oreg.).

[3] = 2.0 mM in DMSO-d6, before illumination
[4] = after UV illumination for 5 min
[5] = after UV, then visible light for 10 min

cis-isomer content (1H NMR) [1, 3]: 6% | trans-isomer content (1H NMR) [1, 3]: 94% | time constant of absorbance change at 338 nm ([1]; UV light, nominal intensity): 1.7 ± 0.3 s | cis-isomer content (1H NMR) [1, 4]: 91% | trans-isomer content (1H NMR) [1, 4]: 9% | cis-isomer content (1H NMR) [1, 5]: 19% | trans-isomer content (1H NMR) [1, 5]: 81% | time constant of absorbance change at 338 nm ([1]; reduced-intensity UV light (10% of nominal)): 22 ± 3 s | time constant of absorbance change at 338 nm ([1]; visible light): 36 ± 2 s
SMILES: CC(C)c1cc(CCCC(=O)NCc2ccc(/N=N/c3ccc(C(=O)NCCN)cc3)cc2)cc(C(C)C)c1O [MPC088, (E)-N-(2-Aminoethyl)-4-((4-((4-(4-hydroxy-3,5-diisopropylphenyl)butanamido)methyl)phenyl)diazenyl)benzamide]
firing rate produced by blue light relative to that produced by UV light ([2]; 10 μM GABA + 30 μM MPC088, UV-Blue-UV flashes): 52±14% | decrease of firing rate ([2]; 10 μM GABA + 30 μM trans-dominant MPC088): approximately 50% | effects on AP waveform ([2]; peak amplitude, half width, maximum rise slope): no detectable effects
